≈ marks a conversion by molar mass, not a printed value.
How the values were obtained:
P. falciparum 3D7 strain = experiment: cell-based P. falciparum proliferation assay, 3D7 strain; settings: Plasmodium falciparum; chloroquine sensitive 3D7 strain; means of two experiments
From the text: (§1) Currently there is a need for novel chemical scaffolds with different mechanisms of action, since most of the current approved antimalarial drugs belong to the aminoquinoline family. In order to find new chemical scaffolds, we initiated a compound screen using our in-house kinase inhibitor collection and subjected them to a cell-based of Plasmodium falciparum proliferation assay[5,6] We envisioned that the hits arising from this screen can be rapidly optimized by leveraging our past experiences with these compounds series in alternative target-classes/indications. Furthermore, we thought that it would be prudent to remove the human kinase activity early on during the compound optimization phase to negate the possibility of toxicity arising from host-related off-target activities (Scheme 1).

[1] = snapshot PK in mice, single oral dose; format: in vivo; settings: mice balb/c, 20 mg/kg orally, PEG300/D5W 3:1 solution, free base; for AUC(0-t) / Cmax at 5 h / Tmax at 5 h: mouse, in vivo, po
Experimental: Mice were dosed a single dose of 20 mg/kg orally and their exposure levels were monitored over a period of 5 h and results are summarized in Table 6.[11]
[11] Snapshot PK is developed and used by GNF pharmacology group as a rapid pharmacokinetic screening approach. The pharmacokinetic parameters of the compounds are studied in a single mode of administration (generally PO arm) over a period of 5 h. The study is carried out on two animals and the samples are pooled together at each time point. This high throughput approach offers exposure levels with reasonable confidence without committing to extensive resources. For details, see: Liu, B.; Chang, J.; Gordon, W. P.; Isbell, J.; Zhou, Yi.; Tuntland, T. Drug Discovery Today2008, 13, 360–367.

P. falciparum W2 strain = experiment: cell-based P. falciparum proliferation assay, W2 strain; parameters: species or system Plasmodium falciparum; settings: for EC50: Plasmodium falciparum, W2, read-out: P. falciparum W2 strain EC50
From the text: as §1
One important aspect of antimalarial drug discovery is to identify agents that are active against the drug-resistant parasites. […] While most of these resistance phenotypes are due to point mutations in the drug target, the W2 strain also contains an amplification of the P. falciparum multidrug resistance transporter.[10]

P. falciparum strain 7G8 = experiment: P. falciparum proliferation assay, 7G8 strain; format: cell-based; settings: Plasmodium falciparum
From the text: as §1
(§2) Compound 32 was profiled in an extended panel of 15 drug resistant strains (Table 5) and against a 6-cell line toxicity panel.

15 P. falciparum strains = experiment: extended panel of 15 drug resistant strains; format: cell-based, Plasmodium falciparum; settings: 15 strains, potencies relative to each other
From the text: as §2

[2] = metabolic stability in mouse microsomes; format: in vitro ADME; settings: preliminary
From the text: (§3) We also performed preliminary solubility and metabolic stability measurements on compound 32.

HeLa = format: cell-based; settings: human
From the text: as §2

CHO = format: cell-based; settings: Chinese hamster
From the text: as §2

293T = format: cell-based; settings: human
From the text: as §2

Huh7 = format: cell-based; settings: human
From the text: as §2

Ba/F3 = format: cell-based; settings: mouse
From the text: as §2

HEp2 = format: cell-based; settings: human
From the text: as §2

[3] = system: P. falciparum strain FCR3; experiment: P. falciparum proliferation assay, FCR3 strain; format: cell-based; settings: Plasmodium falciparum
From the text: as §1, §2

[4] = system: P. falciparum strain NF54; experiment: P. falciparum proliferation assay, NF54 strain; format: cell-based; settings: Plasmodium falciparum
From the text: as §1, §2

[5] = system: P. falciparum strain 3BAG; experiment: P. falciparum proliferation assay, 3BAG strain; format: cell-based; settings: Plasmodium falciparum
From the text: as §1, §2

P. falciparum strain D10 = experiment: P. falciparum proliferation assay, D10 strain; format: cell-based; settings: Plasmodium falciparum
From the text: as §1, §2

P. falciparum strain D6 = experiment: P. falciparum proliferation assay, D6 strain; format: cell-based; settings: Plasmodium falciparum
From the text: as §1, §2

[6] = HT-thermodynamic solubility; format: physicochemical; settings: pH 6.8; pH6.8, free base; preliminary
From the text: as §3

[7] = system: P. falciparum strain TM91C235; experiment: P. falciparum proliferation assay, TM91C235 strain; format: cell-based; settings: Plasmodium falciparum
From the text: as §1, §2

[8] = system: P. falciparum strain C188; experiment: P. falciparum proliferation assay, C188 strain; format: cell-based; settings: Plasmodium falciparum
From the text: as §1, §2

P. falciparum strain HB3 = experiment: P. falciparum proliferation assay, HB3 strain; format: cell-based; settings: Plasmodium falciparum
From the text: as §1, §2

P. falciparum strain FCB = experiment: P. falciparum proliferation assay, FCB strain; format: cell-based; settings: Plasmodium falciparum
From the text: as §1, §2

[9] = 6-cell line toxicity panel, selectivity index; format: cell-based; settings: cytotoxicity TC50 vs antiplasmodial potency; read-out: selectivity index (SI)
From the text: as §2

[10] = system: P. falciparum strain Camp R; experiment: P. falciparum proliferation assay, Camp R strain; format: cell-based; settings: Plasmodium falciparum
From the text: as §1, §2

P. falciparum strain Dd2 = experiment: P. falciparum proliferation assay, Dd2 strain; format: cell-based; settings: Plasmodium falciparum
From the text: as §1, §2

P. falciparum strain K1 = experiment: P. falciparum proliferation assay, K1 strain; format: cell-based; settings: Plasmodium falciparum
From the text: as §1, §2

O=C(Nc1cccc(Cl)c1)c1ccnc(N2CCC(N3CCCC3)CC2)c1 [Compound 26]
EC50 (P. falciparum 3D7 strain): 0.674 µM

O=C(Nc1cccc(Cl)c1)c1cc(F)cc(N2CCC(N3CCCC3)CC2)c1 [Compound 24]
EC50 (P. falciparum 3D7 strain): 0.766 µM

O=C(NC1(c2cccc(C(F)(F)F)c2)CC1)c1cc(N2CCC(N3CCCC3)CC2)cc(C(F)(F)F)c1 [Compound 23]
EC50 (P. falciparum 3D7 strain): 0.423 µM

O=C(Nc1cccc(Cl)c1)c1cc(N2CCC(N3CCCCC3)CC2)cc(C(F)(F)F)c1 [Compound 30]
AUC(0–5h)/dose [1]: 6.10 (min ug/mL)/(mg/kg)
AUC(0-t) [1]: 4.37 µM·h
Cmax at 5 h [1]: 1.37 µM
Tmax at 5 h [1]: 1 h
EC50 (P. falciparum 3D7 strain): 0.082 µM
EC50 (P. falciparum W2 strain): 0.296 µM

CC1CCN(C2CCN(c3cc(C(=O)Nc4cccc(Cl)c4)cc(C(F)(F)F)c3)CC2)CC1 [Compound 32]
AUC(0–5h)/dose [1]: 11.42 (min ug/mL)/(mg/kg)
AUC(0-t) [1]: 7.93 µM·h
Cmax at 5 h [1]: 2.28 µM
Tmax at 5 h [1]: 5 h
EC50 (P. falciparum strain 7G8): 0.309 µM
spread of potencies across the strain panel (15 P. falciparum strains): ≤ 3 fold
extraction ratio [2]: 0.383 ± 0.04
microsomal CLint [2]: 21.4 µL/min/mg
cytotoxicity TC50 (HeLa): greater than 8 μM
cytotoxicity TC50 (CHO): greater than 8 μM
cytotoxicity TC50 (293T): greater than 8 μM
cytotoxicity TC50 (Huh7): greater than 8 μM
cytotoxicity TC50 (Ba/F3): greater than 8 μM
cytotoxicity TC50 (HEp2): greater than 8 μM
EC50 [3]: 0.218 µM
EC50 [4]: 0.104 µM
EC50 [5]: 0.268 µM
EC50 (P. falciparum strain D10): 0.094 µM
EC50 (P. falciparum strain D6): 0.081 µM
solubility thermodynamic [6]: 0.026 mg/mL (≈ 54.2 µM)
EC50 [7]: 0.12 µM
EC50 [8]: 0.083 µM
EC50 (P. falciparum 3D7 strain): 0.14 µM
EC50 (P. falciparum strain HB3): 0.146 µM
EC50 (P. falciparum strain FCB): 0.306 µM
EC50 (P. falciparum W2 strain): 0.323 µM
selectivity ratio [9]: > 20
EC50 [10]: 0.138 µM
EC50 (P. falciparum strain Dd2): 0.141 µM
EC50 (P. falciparum strain K1): 0.15 µM

O=C(Nc1ccccc1Cl)c1cc(N2CCC(N3CCCC3)CC2)cc(C(F)(F)F)c1 [Compound 6]
EC50 (P. falciparum 3D7 strain): 1.72 µM

FC(F)(F)c1cccc(CNc2cc(N3CCC(N4CCCC4)CC3)cc(C(F)(F)F)c2)c1 [Compound 20]
EC50 (P. falciparum 3D7 strain): 1.98 µM

CC1CCCN(C2CCN(c3cc(C(=O)Nc4cccc(C(F)(F)F)c4)cc(C(F)(F)F)c3)CC2)C1 (stereo not shown) [Compound 34]
EC50 (P. falciparum 3D7 strain): 0.058 µM
EC50 (P. falciparum W2 strain): 0.211 µM

O=C(Nc1ccc(Br)c(Cl)c1)c1cc(N2CCC(N3CCCC3)CC2)cc(C(F)(F)F)c1 [Compound 12]
EC50 (P. falciparum 3D7 strain): 0.098 µM

O=C(Nc1cccc(C(F)(F)F)c1)c1cc(N2CCC(N3CCCCC3)CC2)cc(C(F)(F)F)c1 [Compound 31]
EC50 (P. falciparum 3D7 strain): 0.149 µM
EC50 (P. falciparum W2 strain): 0.299 µM

N#Cc1cccc(C(=O)Nc2cc(N3CCC(N4CCCC4)CC3)cc(C(F)(F)F)c2)c1 [Compound 15]
EC50 (P. falciparum 3D7 strain): 0.402 µM

Cc1cc(C(=O)Nc2cccc(Cl)c2)nc(N2CCC(N3CCCC3)CC2)n1 [Compound 28]
EC50 (P. falciparum 3D7 strain): 2.98 µM

CCCNC(=O)c1cc(N2CCC(N3CCCC3)CC2)cc(C(F)(F)F)c1 [Compound 4]
EC50 (P. falciparum 3D7 strain): 6.48 µM

N#Cc1cccc(NC(=O)c2cc(N3CCC(N4CCCC4)CC3)cc(C(F)(F)F)c2)c1 [Compound 9]
EC50 (P. falciparum 3D7 strain): 0.146 µM

O=C(NCc1cccc(C(F)(F)F)c1)c1cc(N2CCC(N3CCCC3)CC2)cc(C(F)(F)F)c1 [Compound 22]
EC50 (P. falciparum 3D7 strain): 0.734 µM

CC(C)(C)c1cc(C(=O)Nc2cccc(Cl)c2)nc(N2CCC(N3CCCC3)CC2)n1 [Compound 29]
EC50 (P. falciparum 3D7 strain): 2.08 µM

CN(C(=O)c1cc(N2CCC(N3CCCC3)CC2)cc(C(F)(F)F)c1)c1cccc(Cl)c1 [Compound 17]
EC50 (P. falciparum 3D7 strain): 4.68 µM

O=C(Nc1cccc(Cl)c1)c1cc(C(F)(F)F)nc(N2CCC(N3CCCC3)CC2)n1 [Compound 27]
EC50 (P. falciparum 3D7 strain): 1.67 µM

O=S(=O)(Nc1cc(N2CCC(N3CCCC3)CC2)cc(C(F)(F)F)c1)c1cccc(C(F)(F)F)c1 [Compound 16]
EC50 (P. falciparum 3D7 strain): 8.25 µM

O=C(Nc1ccc(Cl)cc1)c1cc(N2CCC(N3CCCC3)CC2)cc(C(F)(F)F)c1 [Compound 7]
EC50 (P. falciparum 3D7 strain): 0.114 µM

O=C(Nc1cccc(C(F)(F)F)c1)c1cc(N2CCC(N3CCCC3)CC2)cc(C(F)(F)F)c1 [Compound 10]
EC50 (P. falciparum 3D7 strain): 0.174 µM

O=C(Nc1ccc(Cl)c(Cl)c1)c1cc(N2CCC(N3CCCC3)CC2)cc(C(F)(F)F)c1 [Compound 11]
EC50 (P. falciparum 3D7 strain): 0.054 µM

O=C(Nc1ccncn1)c1cc(N2CCC(N3CCCC3)CC2)cc(C(F)(F)F)c1 [Compound 5]
EC50 (P. falciparum 3D7 strain): 2.16 µM

O=C(Nc1cccc(C(F)(F)F)c1)Nc1cc(N2CCC(N3CCCC3)CC2)cc(C(F)(F)F)c1 [Compound 18]
EC50 (P. falciparum 3D7 strain): 0.452 µM

O=C(Nc1cccc(C(F)(F)F)c1)c1cc(N2CCc3ccccc3C2)cc(C(F)(F)F)c1 [Compound 35]
AUC(0–5h)/dose [1]: 2.33 (min ug/mL)/(mg/kg)
AUC(0-t) [1]: 1.67 µM·h
Cmax at 5 h [1]: 0.672 µM
Tmax at 5 h [1]: 0.5 h
EC50 (P. falciparum 3D7 strain): 0.175 µM
EC50 (P. falciparum W2 strain): 0.635 µM

O=C(Nc1cccc(C(F)(F)F)c1)c1cc(N2CCC(N3CCCCC3=O)CC2)cc(C(F)(F)F)c1 [Compound 33]
EC50 (P. falciparum 3D7 strain): 1.49 µM
EC50 (P. falciparum W2 strain): 1.41 µM

O=C(Nc1cccc(Cl)c1)c1cc(N2CCC(N3CCCC3)CC2)cc(C(F)(F)F)c1 [Compound 8]
AUC(0–5h)/dose [1]: 5.31 (min ug/mL)/(mg/kg)
AUC(0-t) [1]: 3.92 µM·h
Cmax at 5 h [1]: 1.35 µM
Tmax at 5 h [1]: 1 h
EC50 (P. falciparum 3D7 strain): 0.134 µM
EC50 (P. falciparum W2 strain): 0.888 µM
shift in potency between 3D7 and W2 (P. falciparum W2 strain; W2 vs 3D7): ~6 fold

FC(F)(F)c1cccc(Nc2cc(N3CCC(N4CCCC4)CC3)cc(C(F)(F)F)c2)c1 [Compound 21]
EC50 (P. falciparum 3D7 strain): 0.638 µM

O=C(Nc1cccc(Cl)c1)Nc1cc(N2CCC(N3CCCC3)CC2)cc(C(F)(F)F)c1 [Compound 19]
EC50 (P. falciparum 3D7 strain): 0.328 µM

O=C(Nc1cc(Cl)cc(Cl)c1)c1cc(N2CCC(N3CCCC3)CC2)cc(C(F)(F)F)c1 [Compound 13]
AUC(0–5h)/dose [1]: 7.01 (min ug/mL)/(mg/kg)
AUC(0-t) [1]: 4.81 µM·h
Cmax at 5 h [1]: 1.64 µM
Tmax at 5 h [1]: 5 h
EC50 (P. falciparum 3D7 strain): 0.048 µM

O=C(Nc1cccc(Cl)c1)c1cccc(N2CCC(N3CCCC3)CC2)c1 [Compound 25]
EC50 (P. falciparum 3D7 strain): 5.88 µM

O=C(Nc1cc(N2CCC(N3CCCC3)CC2)cc(C(F)(F)F)c1)c1cccc(C(F)(F)F)c1 [Compound 14]
AUC(0–5h)/dose [1]: 6.94 (min ug/mL)/(mg/kg)
AUC(0-t) [1]: 4.77 µM·h
Cmax at 5 h [1]: 1.17 µM
Tmax at 5 h [1]: 3 h
EC50 (P. falciparum 3D7 strain): 0.201 µM
